Experiments:
[1] = target: T1, human Cot catalytic domain (30-397 amino acids) (Homo sapiens, UniProt P41279); experiment: High Throughput Cot Biochemical Assay (KinEASE TR-FRET); conditions: Cot KinEASE TR-FRET, 400 μM ATP; read-out: IC50 HTRF
T1 construct: Purified recombinant human Cot catalytic domain (30-397 amino acids) was purchased from Cama Biosciences; purchased Cama Biosciences (so in the source)
How it was run: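 First, purified human Cot (aa 30-397) at 5 nM phosphorylates an XL665-labeled STK3 peptide (1 μM) at 400 μM ATP, pH 7.0, 0.1% DMSO. Then a europium-conjugated phospho-specific antibody binds the product, giving the TR-FRET signal.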

[2] = test system: TNFα production in LPS-stimulated human monocytes; experiment: Cot Monocyte TNFα Cell Based Assay; conditions: Homo sapiens, Monocyte, LPS-stimulated human monocytes, TNFα TR-FRET; read-out: EC50 TNF
How it was run: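 5,000 cells/well; cmpd 1 h, 37 °C, 0.5% DMSO final; LPS 50 pg/ml, 4 h, 37 °C; media TNFα by HTRF sandwich (cryptate/XL665), RT overnight; % control vs unstimulated/stimulated wells.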

T1 sequence (P41279 30-397): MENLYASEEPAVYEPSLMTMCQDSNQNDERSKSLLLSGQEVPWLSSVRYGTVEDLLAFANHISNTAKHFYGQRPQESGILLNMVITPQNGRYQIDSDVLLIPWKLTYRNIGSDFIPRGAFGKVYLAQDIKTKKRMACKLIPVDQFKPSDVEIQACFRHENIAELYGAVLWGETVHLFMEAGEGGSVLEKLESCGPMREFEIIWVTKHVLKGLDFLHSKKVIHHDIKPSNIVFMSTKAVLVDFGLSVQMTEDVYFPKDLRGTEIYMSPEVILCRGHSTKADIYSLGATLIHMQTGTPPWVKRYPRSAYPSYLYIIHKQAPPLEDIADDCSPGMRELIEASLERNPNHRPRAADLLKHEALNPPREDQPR

Compound	IC50 [1] [nM]	EC50 [2] [nM]
Cc1c([C@H](Nc2cc(Cl)c3ncc(C#N)c(NCC(C)(C)C)c3c2)c2cn(C3(C(F)F)CC3)nn2)cccc1-n1cnnn1 [Example 1062, (S)-8-chloro-6-(((1-(1-(difluoromethyl)cyclopropyl)-1H-1,2,3-triazol-4-yl)(2-methyl-3-(1H-tetrazol-1 yl)phenyl)methyl)amino)-4-(neopentylamino)quinoline-3-carbonitrile]	3	70
Cc1c([C@H](Nc2cc(Cl)c3ncc(C#N)c(NCC(C)(C)C)c3c2)c2cn(C3(C(F)(F)F)CC3)nn2)cccc1-n1ccnn1 [Example 1063, (S)-8-chloro-6-(((2-methyl-3-(1H-1,2,3-triazol-1-yl)phenyl)(1-(1-(trifluoromethyl)cyclopropyl)-1H-1,2,3-triazol-4-yl)methyl)amino)-4-(neopentylamino)quinoline-3-carbonitrile]	6	73
CC(C)(C)CNc1c(C#N)cnc2c(C#N)cc(N[C@@H](c3ccccc3)c3cn(C4(C(F)F)CC4)nn3)cc12 [Example 1064, (S)-6-(((1-(1-(difluoromethyl)cyclopropyl)-1H-1,2,3-triazol-4-yl)(phenyl)methyl)amino)-4-(neopentylamino)quinoline-3,8-dicarbonitrile]	12	103
CC(C)(C)CNc1c(C#N)cnc2c(C#N)cc(N[C@@H](c3ccccc3)c3cn(C4(C(F)(F)F)CC4)nn3)cc12 [Example 1065, (S)-4-(neopentylamino)-6-((phenyl(1-(1-(trifluoromethyl)cyclopropyl)-1H-1,2,3-triazol-4-yl)methyl)amino)quinoline-3,8-dicarbonitrile]	22	237
Cc1ccccc1[C@H](Nc1cc(C#N)c2ncc(C#N)c(NCC(C)(C)C)c2c1)c1cn(C2(C(F)F)CC2)nn1 [Example 1066, (S)-6-(((1-(1-(difluoromethyl)cyclopropyl)-1H-1,2,3-triazol-4-yl)(o-tolyl)methyl)amino)-4-(neopentylamino)quinoline-3,8-dicarbonitrile]	10	85
Cc1ccccc1[C@H](Nc1cc(C#N)c2ncc(C#N)c(NCC(C)(C)C)c2c1)c1cn(C2(C(F)(F)F)CC2)nn1 [Example 1067, (S)-4-(neopentylamino)-6-((o-tolyl(1-(1-(trifluoromethyl)cyclopropyl)-1H-1,2,3-triazol-4-yl)methyl)amino)quinoline-3,8-dicarbonitrile]	17	213
Cc1c([C@H](Nc2cc(C#N)c3ncc(C#N)c(NCC(C)(C)C)c3c2)c2cn(C3(C(F)(F)F)CC3)nn2)cccc1-n1ccnn1 [Example 1068, (S)-6-(((2-methyl-3-(1H-1,2,3-triazol-1-yl)phenyl)(1-(1-(trifluoromethyl)cyclopropyl)-1H-1,2,3-triazol-4-yl)methyl)amino)-4-(neopentylamino)quinoline-3,8-dicarbonitrile]	3	58
Cc1c([C@H](Nc2cc(Cl)c3ncc(C#N)c(NCC(C)(C)C)c3c2)c2cn(C3(C(F)F)CC3)nn2)cccc1-n1ccnc1 [Example 1069, (S)-6-(((3-(1H-imidazol-1-yl)-2-methylphenyl)(1-(1-(difluoromethyl)cyclopropyl)-1H-1,2,3-triazol-4-yl)methyl)amino)-8-chloro-4-(neopentylamino)quinoline-3-carbonitrile]	2	54
Cc1c([C@H](Nc2cc(Cl)c3ncc(C#N)c(NCC(C)(C)C)c3c2)c2cn(C3(C(F)F)CC3)nn2)cccc1-n1cnnc1 [Example 1070, (S)-8-chloro-6-(((1-(1-(difluoromethyl)cyclopropyl)-1H-1,2,3-triazol-4-yl)(2-methyl-3-(4H-1,2,4-triazol-4-yl)phenyl)methyl)amino)-4-(neopentylamino)quinoline-3-carbonitrile]	2	272
Cc1c([C@H](Nc2cc(Cl)c3ncc(C#N)c(NCC(C)(C)C)c3c2)c2cn(C3(C(F)(F)F)CC3)nn2)cccc1-n1cnnc1 [Example 1071, (S)-8-chloro-6-(((2-methyl-3-(4H-1,2,4-triazol-4-yl)phenyl)(1-(1-(trifluoromethyl)cyclopropyl)-1H-1,2,3-triazol-4-yl)methyl)amino)-4-(neopentylamino)quinoline-3-carbonitrile]	3	215
Cc1c([C@H](Nc2cc(C#N)c3ncc(C#N)c(NCC(C)(C)C)c3c2)c2cn(C3(C(F)(F)F)CC3)nn2)cccc1-n1cnnc1 [Example 1072, (S)-6-(((2-methyl-3-(4H-1,2,4-triazol-4-yl)phenyl)(1-(1-(trifluoromethyl)cyclopropyl)-1H-1,2,3-triazol-4-yl)methyl)amino)-4-(neopentylamino)quinoline-3,8-dicarbonitrile]	3	≥ 1000

Now from value to compound:

IC50 [1] [nM]	EC50 [2] [nM]	Compound
1	≥ 1000	Cc1c([C@H](Nc2cc(C#N)c3ncc(C#N)c(NCC(C)(C)C)c3c2)c2cn(C3(C(F)F)CC3)nn2)cccc1-n1cnnc1 [Example 1073, (S)-6-(((1-(1-(difluoromethyl)cyclopropyl)-1H-1,2,3-triazol-4-yl)(2-methyl-3-(4H-1,2,4-triazol-4-yl)phenyl)methyl)amino)-4-(neopentylamino)quinoline-3,8-dicarbonitrile]
48	435	CC(C)(C)CNc1c(C#N)cnc2c(Cl)cc(N[C@H](c3cn(C4(C(F)(F)F)CC4)nn3)c3cccc(C#N)c3Cl)cc12 [Example 1074, (S)-8-chloro-6-(((2-chloro-3-cyanophenyl)(1-(1-(trifluoromethyl)cyclopropyl)-1H-1,2,3-triazol-4-yl)methyl)amino)-4-(neopentylamino)quinoline-3-carbonitrile]
23	185	CC(C)(C)CNc1c(C#N)cnc2c(Cl)cc(N[C@H](c3cn(C4(C(F)F)CC4)nn3)c3cccc(C#N)c3Cl)cc12 [Example 1075, (S)-8-chloro-6-(((2-chloro-3-cyanophenyl)(1-(1-(difluoromethyl)cyclopropyl)-1H-1,2,3-triazol-4-yl)methyl)amino)-4-(neopentylamino)quinoline-3-carbonitrile]
37	182	Cc1cc(F)ccc1[C@H](Nc1cc(Cl)c2ncc(C#N)c(NCC(C)(C)C)c2c1)c1cn(C2(C(F)F)CC2)nn1 [Example 1076, (S)-8-chloro-6-(((1-(1-(difluoromethyl)cyclopropyl)-1H-1,2,3-triazol-4-yl)(4-fluoro-2-methylphenyl)methyl)amino)-4-(neopentylamino)quinoline-3-carbonitrile]
2	77	Cc1c([C@H](Nc2cc(C#N)c3ncc(C#N)c(NCC(C)(C)C)c3c2)c2cn(C3(C(F)F)CC3)nn2)cccc1-n1ccnc1 [Example 1077]
12	175	[2H][C@](Nc1cc(C#N)c2ncc(C#N)c(NCC(C)(C)C)c2c1)(c1ccc(F)cc1)c1cn(Cc2c(F)cccc2F)nn1 [Example 1078, (S)-6-(((1-(2,6-difluorobenzyl)-1H-1,2,3-triazol-4-yl)(4-fluorophenyl)methyl-d)amino)-4-(neopentylamino)quinoline-3,8-dicarbonitrile]
19	220	CC(C)(C)CNc1c(C#N)cnc2c(C#N)cc(N[C@H](c3cn(C4(C(F)(F)F)CC4)nn3)c3cccc(C#N)c3Cl)cc12 [Example 1079, (S)-6-(((2-chloro-3-cyanophenyl)(1-(1-(trifluoromethyl)cyclopropyl)-1H-1,2,3-triazol-4-yl)methyl)amino)-4-(neopentylamino)quinoline-3,8-dicarbonitrile]
7	148	CC(C)(C)CNc1c(C#N)cnc2c(C#N)cc(N[C@H](c3cn(C4(C(F)F)CC4)nn3)c3cccc(C#N)c3Cl)cc12 [Example 1080, (S)-6-(((2-chloro-3-cyanophenyl)(1-(1-(difluoromethyl)cyclopropyl)-1H-1,2,3-triazol-4-yl)methyl)amino)-4-(neopentylamino)quinoline-3,8-dicarbonitrile]
3	219	Cc1c([C@H](Nc2cc(C#N)c3ncc(C#N)c(NCC(C)(C)C)c3c2)c2cn(C3(C(F)(F)F)CC3)nn2)cccc1-n1cnnn1 [Example 1081, (S)-6-(((2-methyl-3-(1H-tetrazol-1-yl)phenyl)(1-(1-(trifluoromethyl)cyclopropyl)-1H-1,2,3-triazol-4-yl)methyl)amino)-4-(neopentylamino)quinoline-3,8-dicarbonitrile]
2	262	Cc1c([C@H](Nc2cc(C#N)c3ncc(C#N)c(NCC(C)(C)C)c3c2)c2cn(C3(C(F)F)CC3)nn2)cccc1-n1cnnn1 [Example 1082, (S)-6-(((1-(1-(difluoromethyl)cyclopropyl)-1H-1,2,3-triazol-4-yl)(2-methyl-3-(1H-tetrazol-1-yl)phenyl)methyl)amino)-4-(neopentylamino)quinoline-3,8-dicarbonitrile]
13	63	Cc1cc(F)ccc1[C@H](Nc1cc(C#N)c2ncc(C#N)c(NCC(C)(C)C)c2c1)c1cn(C2(C(F)F)CC2)nn1 [Example 1083, (S)-6-(((1-(1-(difluoromethyl)cyclopropyl)-1H-1,2,3-triazol-4-yl)(4-fluoro-2-methylphenyl)methyl)amino)-4-(neopentylamino)quinoline-3,8-dicarbonitrile]

From US10316017B2, “COT modulators and methods of use thereof” (Gilead Sciences, Inc., priority 2015, dated 2019)
